Earlier results on one compound are cited in patent US20100272789A1, “EXTERNAL MEDICINE FOR TREATMENT OR PREVENTION” (priority 2007, published 2010).

The conditions of this data set: 20 degrees Celsius at 1 atm.

For the compound `[HH]` [hydrogen molecules, hydrogen], the “solubility of hydrogen molecules into water” value was 1.6 µg/mL.
